# According to ChEMBL document CHEMBL4706499, “PTG-0861: A novel HDAC6-selective inhibitor as a therapeutic strategy in acute myeloid leukaemia” (Eur J Med Chem, 2020):
# Activity calls are given as the source filed them. The rule behind the calls is not given here.
# How the values were obtained:
# [1] = biological target: T1, Protein deacetylase HDAC6 (Homo sapiens) (UniProt Q9UBN7); assay: Inhibition of HDAC6 in human HeLa cells assessed as increase in acetylated alpha tubulin at 0.1 uM measured after 6 hrs by Immunofluorescent assay
# T1 sequence (whole entry): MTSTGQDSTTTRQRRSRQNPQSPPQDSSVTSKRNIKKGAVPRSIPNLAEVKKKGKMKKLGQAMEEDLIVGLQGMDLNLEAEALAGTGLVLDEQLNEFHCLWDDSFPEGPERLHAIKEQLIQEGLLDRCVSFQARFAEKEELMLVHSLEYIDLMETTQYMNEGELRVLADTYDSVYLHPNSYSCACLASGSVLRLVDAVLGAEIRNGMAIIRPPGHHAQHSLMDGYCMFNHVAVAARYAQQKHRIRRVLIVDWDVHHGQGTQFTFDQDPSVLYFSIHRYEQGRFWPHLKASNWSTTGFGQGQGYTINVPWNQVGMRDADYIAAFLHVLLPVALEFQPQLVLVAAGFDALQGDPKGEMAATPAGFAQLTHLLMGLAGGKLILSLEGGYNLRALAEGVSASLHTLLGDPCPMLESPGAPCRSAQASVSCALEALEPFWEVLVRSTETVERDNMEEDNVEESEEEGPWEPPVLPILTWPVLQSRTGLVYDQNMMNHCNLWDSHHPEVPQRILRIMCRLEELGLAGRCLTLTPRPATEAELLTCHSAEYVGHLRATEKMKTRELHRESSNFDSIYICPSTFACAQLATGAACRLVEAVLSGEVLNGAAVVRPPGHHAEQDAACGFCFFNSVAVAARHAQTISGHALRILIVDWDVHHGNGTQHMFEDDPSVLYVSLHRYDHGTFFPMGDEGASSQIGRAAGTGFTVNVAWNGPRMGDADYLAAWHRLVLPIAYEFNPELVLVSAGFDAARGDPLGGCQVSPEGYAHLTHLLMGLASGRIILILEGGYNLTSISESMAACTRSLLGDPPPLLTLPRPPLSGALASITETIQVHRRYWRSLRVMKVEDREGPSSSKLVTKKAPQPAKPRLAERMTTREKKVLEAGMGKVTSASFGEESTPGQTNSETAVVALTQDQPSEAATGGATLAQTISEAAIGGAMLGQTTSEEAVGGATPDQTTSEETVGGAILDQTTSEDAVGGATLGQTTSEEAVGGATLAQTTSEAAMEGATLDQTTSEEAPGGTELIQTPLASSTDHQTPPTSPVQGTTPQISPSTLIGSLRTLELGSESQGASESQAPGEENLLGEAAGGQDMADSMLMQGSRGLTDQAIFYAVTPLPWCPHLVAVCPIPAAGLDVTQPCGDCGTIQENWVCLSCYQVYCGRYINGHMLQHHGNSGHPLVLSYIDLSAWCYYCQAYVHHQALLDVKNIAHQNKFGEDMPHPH
# [2] = biological target: T2, Histone deacetylase 11 (Homo sapiens, UniProt Q96DB2); assay: Inhibition of recombinant full length human HDAC11 expressed in SF9 baculovirus using FAM- labelled acetylated peptide as substrate measured by Electrophoretic mobility shift assay
# T2 sequence (Q96DB2 whole entry): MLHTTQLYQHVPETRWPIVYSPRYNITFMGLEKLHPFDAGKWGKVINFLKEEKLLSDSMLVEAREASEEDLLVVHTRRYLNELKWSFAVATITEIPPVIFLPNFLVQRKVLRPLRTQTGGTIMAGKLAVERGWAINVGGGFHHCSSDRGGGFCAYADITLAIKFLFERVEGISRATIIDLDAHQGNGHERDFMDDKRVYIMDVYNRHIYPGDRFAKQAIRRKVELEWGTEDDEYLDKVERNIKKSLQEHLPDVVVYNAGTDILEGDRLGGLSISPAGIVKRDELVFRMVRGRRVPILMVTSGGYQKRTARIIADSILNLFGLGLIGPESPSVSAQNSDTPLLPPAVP
# [3] = biological target: Class 1 histone deacetylase (Homo sapiens) (UniProt Q13547+O15379+Q92769+Q9BY41); assay: Inhibition of HDAC class 1 in human HeLa cells assessed as acetylated H3 histone at 0.1 uM measured after 6 hrs by Immunofluorescent assay
# Class 1 histone deacetylase (Homo sapiens), sequence (O15379 whole entry, looked up): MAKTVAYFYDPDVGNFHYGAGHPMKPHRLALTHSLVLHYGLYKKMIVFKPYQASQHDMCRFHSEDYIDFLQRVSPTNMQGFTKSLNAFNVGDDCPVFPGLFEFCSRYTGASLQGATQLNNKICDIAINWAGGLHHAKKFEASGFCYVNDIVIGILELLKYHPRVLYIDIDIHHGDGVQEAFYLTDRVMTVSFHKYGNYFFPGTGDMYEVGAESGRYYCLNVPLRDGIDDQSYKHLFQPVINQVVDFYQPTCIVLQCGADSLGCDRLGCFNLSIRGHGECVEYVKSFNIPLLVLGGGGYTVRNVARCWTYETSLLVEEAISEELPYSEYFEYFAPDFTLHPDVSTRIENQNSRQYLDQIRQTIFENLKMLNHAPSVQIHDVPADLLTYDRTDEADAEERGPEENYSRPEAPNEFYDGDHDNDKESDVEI
# Class 1 histone deacetylase (Homo sapiens), sequence (Q13547 whole entry, looked up): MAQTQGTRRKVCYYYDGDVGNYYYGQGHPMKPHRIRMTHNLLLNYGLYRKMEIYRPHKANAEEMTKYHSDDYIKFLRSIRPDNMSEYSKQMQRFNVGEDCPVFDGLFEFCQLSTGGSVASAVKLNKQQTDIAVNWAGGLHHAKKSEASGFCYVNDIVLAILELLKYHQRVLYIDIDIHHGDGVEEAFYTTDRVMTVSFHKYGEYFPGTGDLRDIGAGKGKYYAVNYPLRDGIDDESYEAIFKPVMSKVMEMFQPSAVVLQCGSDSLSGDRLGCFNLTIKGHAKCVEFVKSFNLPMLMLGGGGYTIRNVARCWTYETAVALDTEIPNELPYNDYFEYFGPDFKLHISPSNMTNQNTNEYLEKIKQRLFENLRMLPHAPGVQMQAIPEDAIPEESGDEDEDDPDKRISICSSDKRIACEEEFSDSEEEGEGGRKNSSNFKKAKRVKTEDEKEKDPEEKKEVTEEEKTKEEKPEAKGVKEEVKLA
# Class 1 histone deacetylase (Homo sapiens), sequence (Q92769 whole entry, looked up): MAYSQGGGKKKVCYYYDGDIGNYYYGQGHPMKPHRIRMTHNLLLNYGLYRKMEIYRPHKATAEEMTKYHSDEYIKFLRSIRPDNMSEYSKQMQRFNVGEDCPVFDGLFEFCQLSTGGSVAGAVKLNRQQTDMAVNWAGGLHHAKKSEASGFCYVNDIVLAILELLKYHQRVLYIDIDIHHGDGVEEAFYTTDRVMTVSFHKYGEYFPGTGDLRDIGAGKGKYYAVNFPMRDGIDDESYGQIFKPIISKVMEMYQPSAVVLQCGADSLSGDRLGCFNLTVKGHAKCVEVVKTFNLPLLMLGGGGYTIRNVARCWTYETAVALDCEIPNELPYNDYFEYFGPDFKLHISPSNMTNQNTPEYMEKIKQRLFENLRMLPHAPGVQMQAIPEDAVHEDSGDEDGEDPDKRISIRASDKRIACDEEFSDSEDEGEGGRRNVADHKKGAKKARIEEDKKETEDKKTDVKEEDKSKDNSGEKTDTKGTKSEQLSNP
# Class 1 histone deacetylase (Homo sapiens), sequence (Q9BY41 whole entry, looked up): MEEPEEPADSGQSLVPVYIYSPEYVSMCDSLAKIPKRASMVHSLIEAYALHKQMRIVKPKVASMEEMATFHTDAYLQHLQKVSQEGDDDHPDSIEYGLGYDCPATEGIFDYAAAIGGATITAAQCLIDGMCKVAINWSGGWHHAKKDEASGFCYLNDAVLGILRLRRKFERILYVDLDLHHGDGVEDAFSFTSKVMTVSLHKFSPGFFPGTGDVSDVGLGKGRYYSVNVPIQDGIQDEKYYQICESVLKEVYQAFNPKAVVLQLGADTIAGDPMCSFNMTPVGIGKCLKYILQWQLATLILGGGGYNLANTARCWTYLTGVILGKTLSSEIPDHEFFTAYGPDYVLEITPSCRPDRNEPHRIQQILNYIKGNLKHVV
structure (smiles),measurement,setting,value
O=C(NO)c1ccc(CNC(=O)c2c(F)c(F)c(F)c(F)c2F)cc1,inhibition,[1],Active
same,IC50,[2],> 1 µM
same,inhibition,[3],inactive
